From ChEMBL document CHEMBL1136509, “Structure-activity relationships of novel anti-malarial agents: part 5. N-(4-acylamino-3-benzoylphenyl)-[5-(4-nitrophenyl)-2-furyl]acrylic acid amides” (Bioorg Med Chem Lett, 2003)

Test system: Plasmodium falciparum
Assay: Inhibitory activity against Plasmodium falciparum Dd2 in erythrocytes by semiautomated micro dilution
Assay type: functional, organism-based

Row | Compound | IC50 [nM]
1 | O=C(/C=C/c1ccc(-c2ccc([N+](=O)[O-])cc2)o1)Nc1ccc(NC(=O)Cc2ccccc2C(F)(F)F)c(C(=O)c2ccccc2)c1 | 1000
2 | O=C(/C=C/c1ccc(-c2ccc([N+](=O)[O-])cc2)o1)Nc1ccc(NC(=O)Cc2ccccc2Br)c(C(=O)c2ccccc2)c1 | 1000
3 | O=C(/C=C/c1ccc(-c2ccc([N+](=O)[O-])cc2)o1)Nc1ccc(NC(=O)c2ccc(Cl)cc2)c(C(=O)c2ccccc2)c1 | 2500
4 | O=C(/C=C/c1ccc(-c2ccc([N+](=O)[O-])cc2)o1)Nc1ccc(NC(=O)Cc2ccc3ccccc3c2)c(C(=O)c2ccccc2)c1 | 210
5 | Cc1cccc(CC(=O)Nc2ccc(NC(=O)/C=C/c3ccc(-c4ccc([N+](=O)[O-])cc4)o3)cc2C(=O)c2ccccc2)c1 | 150
6 | Cc1ccccc1CC(=O)Nc1ccc(NC(=O)/C=C/c2ccc(-c3ccc([N+](=O)[O-])cc3)o2)cc1C(=O)c1ccccc1 | 650
7 | O=C(/C=C/c1ccc(-c2ccc([N+](=O)[O-])cc2)o1)Nc1ccc(NC(=O)c2cccc3ccccc23)c(C(=O)c2ccccc2)c1 | 770
8 | O=C(/C=C/c1ccc(-c2ccc([N+](=O)[O-])cc2)o1)Nc1ccc(NC(=O)Cc2ccc(Cl)cc2)c(C(=O)c2ccccc2)c1 | 64
9 | O=C(/C=C/c1ccc(-c2ccc([N+](=O)[O-])cc2)o1)Nc1ccc(NC(=O)Cc2ccc(-c3ccccc3)cc2)c(C(=O)c2ccccc2)c1 | 1000
10 | O=C(/C=C/c1ccc(-c2ccc([N+](=O)[O-])cc2)o1)Nc1ccc(NC(=O)Cc2ccccc2)c(C(=O)c2ccccc2)c1 | 270
11 | COc1ccc(CC(=O)Nc2ccc(NC(=O)/C=C/c3ccc(-c4ccc([N+](=O)[O-])cc4)o3)cc2C(=O)c2ccccc2)cc1 | 320
12 | O=C(/C=C/c1ccc(-c2ccc([N+](=O)[O-])cc2)o1)Nc1ccc(NC(=O)Cc2ccc(C(F)(F)F)cc2)c(C(=O)c2ccccc2)c1 | 47
13 | O=C(/C=C/c1ccc(-c2ccc([N+](=O)[O-])cc2)o1)Nc1ccc(NC(=O)C(c2ccccc2)c2ccccc2)c(C(=O)c2ccccc2)c1 | 5500
14 | O=C(/C=C/c1ccc(-c2ccc([N+](=O)[O-])cc2)o1)Nc1ccc(NC(=O)Cc2cccc3ccccc23)c(C(=O)c2ccccc2)c1 | 250
15 | O=C(/C=C/c1ccc(-c2ccc([N+](=O)[O-])cc2)o1)Nc1ccc(NC(=O)Cc2ccc(Br)cc2)c(C(=O)c2ccccc2)c1 | 70
16 | O=C(/C=C/c1ccc(-c2ccc([N+](=O)[O-])cc2)o1)Nc1ccc(NC(=O)Cc2ccc([N+](=O)[O-])cc2)c(C(=O)c2ccccc2)c1 | 1400
17 | O=C(/C=C/c1ccc(-c2ccc([N+](=O)[O-])cc2)o1)Nc1ccc(NC(=O)c2ccccc2)c(C(=O)c2ccccc2)c1 | 3000
18 | CC(C(=O)Nc1ccc(NC(=O)/C=C/c2ccc(-c3ccc([N+](=O)[O-])cc3)o2)cc1C(=O)c1ccccc1)c1ccccc1 (stereo not given) | 500
19 | O=C(/C=C/c1ccc(-c2ccc([N+](=O)[O-])cc2)o1)Nc1ccc(NC(=O)c2ccc3ccccc3c2)c(C(=O)c2ccccc2)c1 | 2500
20 | O=C(/C=C/c1ccc(-c2ccc([N+](=O)[O-])cc2)o1)Nc1ccc(NC(=O)Cc2ccc(F)cc2)c(C(=O)c2ccccc2)c1 | 230
